# Measured values reported in ChEMBL document CHEMBL1151717, “In vivo active aldosterone synthase inhibitors with improved selectivity: lead optimization providing a series of pyridine substituted 3,4-dihydro-1H-quinolin-2-one derivatives” (J Med Chem, 2008).
# Columns and labels:
# [1] = biological target: T1, Cytochrome P450 11B2, mitochondrial (Homo sapiens, UniProt P19099)
# T1 sequence (P19099 whole entry): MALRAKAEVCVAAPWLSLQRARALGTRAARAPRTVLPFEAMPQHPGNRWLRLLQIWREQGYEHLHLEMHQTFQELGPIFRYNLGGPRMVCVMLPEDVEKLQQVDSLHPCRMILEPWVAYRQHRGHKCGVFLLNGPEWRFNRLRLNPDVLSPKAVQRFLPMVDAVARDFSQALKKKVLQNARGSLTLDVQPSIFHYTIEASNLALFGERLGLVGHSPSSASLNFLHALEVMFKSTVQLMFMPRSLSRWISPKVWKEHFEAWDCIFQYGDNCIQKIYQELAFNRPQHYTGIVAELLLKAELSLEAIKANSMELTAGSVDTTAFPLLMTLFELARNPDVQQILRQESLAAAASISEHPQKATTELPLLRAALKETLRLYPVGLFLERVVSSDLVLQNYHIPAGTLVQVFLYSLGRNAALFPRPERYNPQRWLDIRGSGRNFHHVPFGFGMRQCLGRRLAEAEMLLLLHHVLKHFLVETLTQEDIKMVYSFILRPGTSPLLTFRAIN
# [2] = biological target: T2, Cytochrome P450 11B1, mitochondrial (Homo sapiens, UniProt P15538)
# T2 sequence (P15538 whole entry): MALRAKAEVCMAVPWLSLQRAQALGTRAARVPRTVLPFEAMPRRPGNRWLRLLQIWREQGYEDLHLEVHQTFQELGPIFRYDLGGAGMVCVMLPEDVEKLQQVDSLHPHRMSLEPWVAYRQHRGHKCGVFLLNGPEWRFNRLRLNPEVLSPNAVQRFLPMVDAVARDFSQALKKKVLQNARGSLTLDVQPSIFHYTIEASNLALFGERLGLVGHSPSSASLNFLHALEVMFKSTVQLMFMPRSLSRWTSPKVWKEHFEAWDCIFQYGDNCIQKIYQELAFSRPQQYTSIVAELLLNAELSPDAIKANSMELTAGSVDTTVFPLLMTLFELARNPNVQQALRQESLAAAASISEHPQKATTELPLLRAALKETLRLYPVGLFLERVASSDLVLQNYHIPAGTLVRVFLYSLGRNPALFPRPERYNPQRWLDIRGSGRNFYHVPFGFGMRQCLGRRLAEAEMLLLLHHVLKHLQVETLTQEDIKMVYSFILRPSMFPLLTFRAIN
# [3] = AUC (0 to infinity) in Wistar rat at 5 mg/kg, po by cassette dosing; format: ADME, organism-based; parameters: time infinity, dose 5 mg/kg, route oral; conditions: plasma
# [4] = Cmax in Wistar rat at 5 mg/kg, po by cassette dosing; format: ADME, organism-based; parameters: dose 5 mg/kg, route oral; conditions: in vivo
# [5] = Terminal half life in Wistar rat at 5 mg/kg, po by cassette dosing; format: ADME, organism-based; parameters: dose 5 mg/kg, route oral; conditions: in vivo, read-out: beta t1/2 (converted)
# CYP17 = biological target: T3, CYP17 (Homo sapiens, UniProt P05093); assay: in vitro; conditions: human CYP17 expressed in Escherichia coli
# T3 sequence (P05093 whole entry): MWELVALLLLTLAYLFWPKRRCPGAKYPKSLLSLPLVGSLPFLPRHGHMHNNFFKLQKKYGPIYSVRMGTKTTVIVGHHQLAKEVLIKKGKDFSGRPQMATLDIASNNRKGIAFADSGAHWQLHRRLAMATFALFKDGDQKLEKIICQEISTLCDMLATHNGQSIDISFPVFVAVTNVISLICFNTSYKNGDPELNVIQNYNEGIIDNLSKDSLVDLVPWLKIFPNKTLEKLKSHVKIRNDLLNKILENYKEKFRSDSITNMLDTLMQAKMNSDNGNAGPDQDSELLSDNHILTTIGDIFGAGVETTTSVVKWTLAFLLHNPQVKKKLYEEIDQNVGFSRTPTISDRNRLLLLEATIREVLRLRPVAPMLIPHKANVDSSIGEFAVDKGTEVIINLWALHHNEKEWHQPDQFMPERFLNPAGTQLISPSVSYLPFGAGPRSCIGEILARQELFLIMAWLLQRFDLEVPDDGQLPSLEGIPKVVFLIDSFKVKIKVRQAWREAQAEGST
# Description: Inhibition of human CYP17 expressed in Escherichia coli at 2.5 uM
# [6] = biological target: T1, Cytochrome P450 11B2, mitochondrial; assay: Inhibition of human CYP11B2 expressed in hamster V79 MZh cells at 500 nM; format: cell-based; conditions: V79MZh
# Homo sapiens = species on record: Homo sapiens; assay: Selectivity ratio, IC50 for human CYP11B1 to IC50 for human CYP11B2
# CYP19 (aromatase) = biological target: T4, CYP19 (aromatase) (Homo sapiens, UniProt P11511); assay: Inhibition of human placental CYP19 at 500 nM; format: functional
# T4 sequence (P11511 whole entry): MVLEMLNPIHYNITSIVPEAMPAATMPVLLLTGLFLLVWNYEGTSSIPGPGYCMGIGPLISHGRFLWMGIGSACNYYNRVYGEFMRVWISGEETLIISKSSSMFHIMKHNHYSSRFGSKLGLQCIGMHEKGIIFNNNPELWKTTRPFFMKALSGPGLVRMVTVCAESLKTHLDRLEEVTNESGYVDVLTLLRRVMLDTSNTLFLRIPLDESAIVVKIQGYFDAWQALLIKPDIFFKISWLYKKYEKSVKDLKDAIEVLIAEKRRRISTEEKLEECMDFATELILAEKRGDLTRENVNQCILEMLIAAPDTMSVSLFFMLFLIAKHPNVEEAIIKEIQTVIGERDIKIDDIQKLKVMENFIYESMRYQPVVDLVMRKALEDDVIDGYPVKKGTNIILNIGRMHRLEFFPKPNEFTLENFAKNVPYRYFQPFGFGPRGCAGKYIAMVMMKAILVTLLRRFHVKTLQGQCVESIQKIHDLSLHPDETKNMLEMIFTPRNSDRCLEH
# Cytochrome P450 1A2 = biological target: T5, Cytochrome P450 1A2 (Homo sapiens, UniProt P05177)
# T5 sequence (P05177 whole entry): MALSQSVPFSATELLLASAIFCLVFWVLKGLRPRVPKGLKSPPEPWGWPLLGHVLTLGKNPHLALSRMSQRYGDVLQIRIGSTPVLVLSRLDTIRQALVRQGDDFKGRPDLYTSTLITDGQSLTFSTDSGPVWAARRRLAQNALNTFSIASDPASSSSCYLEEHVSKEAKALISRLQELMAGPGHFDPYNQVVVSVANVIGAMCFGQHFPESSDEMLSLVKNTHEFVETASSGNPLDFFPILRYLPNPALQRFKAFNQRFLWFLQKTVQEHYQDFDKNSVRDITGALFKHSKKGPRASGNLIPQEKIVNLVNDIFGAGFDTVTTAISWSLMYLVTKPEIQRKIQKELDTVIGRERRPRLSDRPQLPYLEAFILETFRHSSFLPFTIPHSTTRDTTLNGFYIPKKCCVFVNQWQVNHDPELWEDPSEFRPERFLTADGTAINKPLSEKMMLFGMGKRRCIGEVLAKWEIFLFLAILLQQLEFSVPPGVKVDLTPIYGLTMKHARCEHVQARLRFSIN
# CYP1A2 = biological target: T6, CYP1A2 (Homo sapiens, UniProt P05177); assay: Inhibition of human recombinant CYP1A2 expressed in baculovirus-infected insect microsomes at 2 uM; format: ADME, Microsome
# T6 sequence (P05177 whole entry): T5 sequence (P05177 whole entry)
# Cytochrome P450 2C19 = Cytochrome P450 2C19 (Homo sapiens, UniProt P33261); assay: Inhibition of human recombinant CYP2C19 expressed in baculovirus-infected insect microsomes; format: ADME, Microsome
# Cytochrome P450 2C19, sequence (P33261 whole entry): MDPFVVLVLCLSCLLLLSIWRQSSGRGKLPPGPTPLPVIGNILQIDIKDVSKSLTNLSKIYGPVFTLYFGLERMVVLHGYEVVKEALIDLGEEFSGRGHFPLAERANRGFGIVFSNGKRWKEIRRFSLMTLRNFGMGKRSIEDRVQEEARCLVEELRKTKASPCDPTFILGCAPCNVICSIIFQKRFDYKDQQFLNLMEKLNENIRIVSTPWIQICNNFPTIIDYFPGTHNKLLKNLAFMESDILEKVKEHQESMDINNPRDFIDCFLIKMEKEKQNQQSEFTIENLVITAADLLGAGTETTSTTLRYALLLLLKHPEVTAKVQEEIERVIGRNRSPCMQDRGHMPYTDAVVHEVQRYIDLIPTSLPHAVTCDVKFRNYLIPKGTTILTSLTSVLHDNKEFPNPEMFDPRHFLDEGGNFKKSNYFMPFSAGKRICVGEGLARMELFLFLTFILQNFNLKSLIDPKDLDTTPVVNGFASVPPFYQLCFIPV
# Cytochrome P450 2B6 = biological target: T7, Cytochrome P450 2B6 (Homo sapiens, UniProt P20813); assay: Inhibition of human recombinant CYP2B6 expressed in baculovirus-infected insect microsomes; format: ADME, Microsome
# T7 sequence (P20813 whole entry): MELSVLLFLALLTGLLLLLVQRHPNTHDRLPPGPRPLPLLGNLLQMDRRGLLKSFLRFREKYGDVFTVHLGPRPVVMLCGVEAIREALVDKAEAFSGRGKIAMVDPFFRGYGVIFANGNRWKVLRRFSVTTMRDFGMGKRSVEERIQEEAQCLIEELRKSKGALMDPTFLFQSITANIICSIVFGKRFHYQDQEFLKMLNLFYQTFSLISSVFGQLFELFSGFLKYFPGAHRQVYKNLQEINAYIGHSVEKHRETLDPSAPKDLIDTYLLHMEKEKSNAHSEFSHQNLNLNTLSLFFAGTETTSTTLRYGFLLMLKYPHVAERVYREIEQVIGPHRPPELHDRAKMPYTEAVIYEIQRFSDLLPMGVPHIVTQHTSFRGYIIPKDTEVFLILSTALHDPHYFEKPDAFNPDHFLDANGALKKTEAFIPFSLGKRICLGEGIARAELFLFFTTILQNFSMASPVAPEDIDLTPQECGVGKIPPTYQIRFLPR
# [7] = Tmax in Wistar rat at 5 mg/kg, po by cassette dosing; format: ADME, organism-based; parameters: dose 5 mg/kg, route oral; conditions: in vivo
# Cytochrome P450 2D6 = Cytochrome P450 2D6 (Homo sapiens, UniProt P10635); assay: Inhibition of human recombinant CYP2D6 expressed in baculovirus-infected insect microsomes; format: ADME, Microsome
# Cytochrome P450 2D6, sequence (P10635 whole entry): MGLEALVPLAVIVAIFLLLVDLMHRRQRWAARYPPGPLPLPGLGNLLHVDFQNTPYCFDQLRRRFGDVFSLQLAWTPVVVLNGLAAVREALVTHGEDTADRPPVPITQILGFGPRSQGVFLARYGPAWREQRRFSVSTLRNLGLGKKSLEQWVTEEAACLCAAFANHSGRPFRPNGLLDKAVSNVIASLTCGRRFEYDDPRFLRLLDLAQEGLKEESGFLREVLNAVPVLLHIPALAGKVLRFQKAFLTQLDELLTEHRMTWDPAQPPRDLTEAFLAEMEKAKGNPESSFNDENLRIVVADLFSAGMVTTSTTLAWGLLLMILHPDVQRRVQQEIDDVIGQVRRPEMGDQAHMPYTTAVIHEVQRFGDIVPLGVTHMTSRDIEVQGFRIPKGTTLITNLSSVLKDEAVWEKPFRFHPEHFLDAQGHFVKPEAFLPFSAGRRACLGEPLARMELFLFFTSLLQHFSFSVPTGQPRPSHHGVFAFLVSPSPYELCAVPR
# Cytochrome P450 2C9 = Cytochrome P450 2C9 (Homo sapiens, UniProt P11712); assay: Inhibition of human recombinant CYP2C9 expressed in baculovirus-infected insect microsomes; format: ADME, Microsome
# Cytochrome P450 2C9, sequence (P11712 whole entry): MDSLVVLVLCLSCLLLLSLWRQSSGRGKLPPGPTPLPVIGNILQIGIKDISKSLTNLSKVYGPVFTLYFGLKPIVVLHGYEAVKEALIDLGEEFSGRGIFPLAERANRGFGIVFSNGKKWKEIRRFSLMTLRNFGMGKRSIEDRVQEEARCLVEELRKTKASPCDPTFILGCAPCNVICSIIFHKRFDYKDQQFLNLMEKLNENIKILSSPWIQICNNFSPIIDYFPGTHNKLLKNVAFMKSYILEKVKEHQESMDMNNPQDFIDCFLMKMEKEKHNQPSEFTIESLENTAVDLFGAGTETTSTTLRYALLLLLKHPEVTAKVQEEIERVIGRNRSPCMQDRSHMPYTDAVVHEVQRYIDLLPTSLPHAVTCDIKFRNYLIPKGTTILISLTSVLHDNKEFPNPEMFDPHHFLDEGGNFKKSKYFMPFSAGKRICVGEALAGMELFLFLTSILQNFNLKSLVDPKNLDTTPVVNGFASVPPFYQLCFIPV
# Aromatase = biological target: T8, Aromatase (Homo sapiens, UniProt P11511); assay: Inhibition of human placental CYP19; format: functional
# T8 sequence (P11511 whole entry): T4 sequence (P11511 whole entry)
# Cytochrome P450 3A4 = Cytochrome P450 3A4 (Homo sapiens, UniProt P08684); assay: Inhibition of human recombinant CYP3A4 expressed in baculovirus-infected insect microsomes; format: ADME, Microsome
# Cytochrome P450 3A4, sequence (P08684 whole entry): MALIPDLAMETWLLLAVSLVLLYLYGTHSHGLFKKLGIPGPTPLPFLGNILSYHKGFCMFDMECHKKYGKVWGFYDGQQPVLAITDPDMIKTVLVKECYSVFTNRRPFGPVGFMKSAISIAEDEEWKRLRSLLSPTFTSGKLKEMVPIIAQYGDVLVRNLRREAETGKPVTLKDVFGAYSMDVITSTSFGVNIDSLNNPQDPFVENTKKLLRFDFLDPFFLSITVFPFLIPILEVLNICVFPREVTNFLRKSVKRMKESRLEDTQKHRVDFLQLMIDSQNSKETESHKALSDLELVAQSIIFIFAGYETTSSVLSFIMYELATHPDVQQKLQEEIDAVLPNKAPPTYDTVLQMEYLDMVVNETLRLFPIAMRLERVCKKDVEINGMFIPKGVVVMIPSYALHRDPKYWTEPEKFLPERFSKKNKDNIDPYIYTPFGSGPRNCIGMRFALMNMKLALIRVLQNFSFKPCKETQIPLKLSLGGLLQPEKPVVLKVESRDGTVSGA
# [8] = Protein binding in human plasma at 3 uM after 1 hr; format: ADME, cell-free; conditions: read-out: PPB (converted)
# [9] = Protein binding in rat plasma at 3 uM after 1 hr; format: ADME, cell-free; conditions: read-out: PPB (converted)
Structure (SMILES),IC50 [1],IC50 [2],inhibition at 2.5 µM (CYP17),inhibition at 0.5 µM [6],Ratio IC50 (Homo sapiens),inhibition at 0.5 µM (CYP19 (aromatase)),IC50 (Cytochrome P450 1A2),inhibition at 2 µM (CYP1A2),also measured
O=C1CSc2cc(-c3cccnc3)ccc2N1,12 nM,525 nM,,,,,,,
N#Cc1ccc(C2CCCc3cncn32)cc1 (stereo not given) [FADROZOLE],,,,,,,,,AUC(0-inf) [3]: 3210 ng·h/mL; Cmax [4]: 471 ng/mL; half-life [5]: 3.2 h
N#CC1=Cc2ccc(-c3cccnc3)cc2CC1,1.6 nM,290 nM,74%,97%,181,< 5%,180 nM,90%,
CCN1C(=O)CCc2cc(-c3cccnc3)ccc21,22 nM,5180 nM,< 5%,,,63%,3480 nM,36%,
CN1C(=O)CCc2cc(-c3cncc4ccccc34)ccc21,0.1 nM,6.9 nM,,,,,,,
COc1cncc(-c2ccc3c(c2)CCC(=O)N3)c1,2.7 nM,339 nM,12%,91%,126,< 5%,5240 nM,25%,
CN1C(=O)CCc2cc(-c3cccnc3)ccc21,2.6 nM,742 nM,8%,,,54%,1790 nM,53%,AUC(0-inf) [3]: 659 ng·h/mL; IC50 (Cytochrome P450 2C19; read-out: IC50): 122000 nM; Cmax [4]: 86 ng/mL; half-life [5]: 2.3 h; IC50 (Cytochrome P450 2B6): < 50000 nM; Tmax [7]: 6 h; IC50 (Cytochrome P450 2D6): < 200000 nM; IC50 (Cytochrome P450 2C9): 125000 nM
COc1cncc(-c2ccc3c(c2)CCC(=O)N3C)c1,,,< 5%,,,5%,16500 nM,20%,
S=C1CCc2cc(-c3cccnc3)ccc2N1,3.1 nM,580 nM,72%,,,< 5%,640 nM,77%,
S=C1CCc2cc(-c3cccnc3)cc(Cl)c2N1,4.2 nM,769 nM,,97%,183,,,,
N#Cc1ccc2cc(-c3cccnc3)ccc2c1,,,73%,,,,,,IC50 (Aromatase): > 36000 nM
N#CC1CCc2cc(-c3cccnc3)ccc2C1 (stereo not given),,,,,,,660 nM,72%,
CCOC1CCc2cc(-c3cccnc3)ccc2C1 (stereo not given),,,,,,,620 nM,73%,
c1cncc(-c2ccc3c(c2)CCCC3)c1,29 nM,1980 nM,,82%,68,,,,
OC1CCc2cc(-c3cccnc3)ccc2C1 (stereo not given),44 nM,4920 nM,49%,86%,112,23%,600 nM,74%,
c1cncc(-c2ccc3ccccc3c2)c1,,,40%,,,,,99%,
COc1ccc2cc(-c3cccnc3)ccc2c1,,,72%,,,,,,IC50 (Aromatase): 600 nM
O=C1Cc2cc(-c3cccnc3)ccc2N1,,,,,,,,25%,
CN1CCOc2cc(-c3cccnc3)ccc21,101 nM,5970 nM,,71%,59,,,,
COC1CCc2cc(-c3cccnc3)ccc2C1 (stereo not given),3.3 nM,,44%,97%,347,22%,,80%,IC50 (Cytochrome P450 2C19): < 200000 nM; IC50 (Cytochrome P450 2B6): 47400 nM; IC50 (Cytochrome P450 3A4): 12200 nM; IC50 (Cytochrome P450 2D6): < 200000 nM; IC50 (Cytochrome P450 2C9): 16300 nM
O=C1CCc2cc(-c3cccnc3)ccc21,,,,,,,1550 nM,57%,"AUC(0-inf) [3]: 3180 ng·h/mL; IC50 (Cytochrome P450 2C19; read-out: IC50): 147000 nM; fraction unbound at 1 h, 3 µM [8]: 0.78; fraction unbound at 1 h, 3 µM [9]: 0.76; Cmax [4]: 300 ng/mL; half-life [5]: 2.4 h; IC50 (Cytochrome P450 2B6): < 50000 nM; Tmax [7]: 4 h; IC50 (Cytochrome P450 2C9): 123000 nM"
O=C1CCc2cc(-c3cccnc3)cc(Cl)c2N1,,,7%,,,17%,30600 nM,14%,
